# Laboratory results taken from article PMC4556614 (PLoS ONE, 2015).
# How the values were obtained:
# OCT2 [1] = target: T1, OCT2 (Homo sapiens, UniProt O15244); experiment: in vitro
# OCT2 [2] = target: T1, OCT2; experiment: Inhibition of OCT2-mediated [3H]MPP+ uptake in HEK-OCT2 cells
# [3] = test drug 20 µM, MPP+ 50 μM, 3 min, net uptake HEK-OCT2 minus HEK-VC
# [4] = test drug 200 µM, MPP+ 50 μM, 3 min, net uptake HEK-OCT2 minus HEK-VC
# T1 sequence (O15244 whole entry): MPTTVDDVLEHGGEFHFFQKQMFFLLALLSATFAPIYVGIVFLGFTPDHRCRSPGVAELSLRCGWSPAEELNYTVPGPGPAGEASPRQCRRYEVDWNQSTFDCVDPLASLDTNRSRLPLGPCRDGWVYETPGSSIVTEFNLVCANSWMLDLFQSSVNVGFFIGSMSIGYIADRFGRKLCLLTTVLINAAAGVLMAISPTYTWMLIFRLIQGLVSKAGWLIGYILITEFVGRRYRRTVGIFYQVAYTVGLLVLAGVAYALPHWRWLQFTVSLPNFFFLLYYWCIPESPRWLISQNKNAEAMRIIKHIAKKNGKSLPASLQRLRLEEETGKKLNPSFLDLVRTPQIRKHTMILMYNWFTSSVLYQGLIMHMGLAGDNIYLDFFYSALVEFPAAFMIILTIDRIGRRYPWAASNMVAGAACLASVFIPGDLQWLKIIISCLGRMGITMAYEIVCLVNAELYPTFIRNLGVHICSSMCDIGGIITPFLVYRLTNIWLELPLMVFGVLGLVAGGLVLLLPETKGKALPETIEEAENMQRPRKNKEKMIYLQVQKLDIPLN
SMILES,"% Inhibition of OCT2-dependent MF uptake at 200 µM (mean ± SEM) (OCT2 [1]; human, pH 7.3)",% Inhibition of OCT2-dependent MPP+ uptake at 20 µM (mean ± SEM) (OCT2 [2]; [3]),% Inhibition of OCT2-dependent MPP+ uptake at 200 µM (mean ± SEM) (OCT2 [2]; [4]),"% Inhibition of OCT2-dependent MPP+ uptake at 20 µM (mean ± SEM) (OCT2 [2]; human, pH 7.3)","% Inhibition of OCT2-dependent MPP+ uptake at 200 µM (mean ± SEM) (OCT2 [2]; human, pH 7.3)","% Inhibition of OCT2-dependent MF uptake at 20 µM (mean ± SEM) (OCT2 [1]; human, pH 7.3)","IC50 values, OCT2-mediated metformin transport (in words) (OCT2 [1]; potent inhibitors, confirmed previous findings [19]-[21])","inhibition at 3 min, 20 µM (OCT2 [1]; human, pH 7.3)","inhibition at 3 min, 200 µM (OCT2 [1]; human, pH 7.3)","inhibition at 3 min, 20 µM (OCT2 [2]; human, pH 7.3)","inhibition at 3 min, 200 µM (OCT2 [2]; human, pH 7.3)"
OCCN1CCN(CCCN2c3ccccc3C=Cc3ccccc32)CC1 [Opipramol],99.5 ± 0.7,14.0 ± 7.6%,81.6 ± 3.9%,–,–,–,–,–,–,–,–
O=C1Nc2ccc(Cl)cc2C(c2ccccc2)=NC1O (stereo not drawn) [Oxazepam],97.5 ± 0.5,–,–,37.6 ± 4.7,44.6 ± 6.5,–,–,–,–,–,–
Fc1ccc([C@@H]2CCNC[C@H]2COc2ccc3c(c2)OCO3)cc1 [Paroxetine],99.6 ± 1.9,15.5 ± 3.8%,87.2 ± 3.6%,–,–,80.6 ± 3.1,–,–,–,–,–
CN1CCN(CCCN2c3ccccc3Sc3ccccc32)CC1 [Perazine],92.0 ± 1.8,58.5 ± 2.8%,65.9 ± 2.0%,–,–,53.6 ± 3.6,–,–,–,–,–
NC(=O)C1(N2CCCCC2)CCN(CCCC(=O)c2ccc(F)cc2)CC1 [Pipamperone],78.1 ± 2.2,12.0 ± 4.5%,33.1 ± 3.4%,–,–,33.9 ± 6.0,–,–,–,–,–
NC(=O)CN1CCCC1=O [Piracetam],2.5 ± 1.7,-9.5 ± 12.1%,-0.5 ± 10.0%,–,–,3.4 ± 3.4,–,–,–,–,–
CC[C@H](C)C(=O)O[C@H]1C[C@H](O)C=C2C=C[C@H](C)[C@H](CC[C@@H](O)C[C@@H](O)CC(=O)O)[C@H]21 [Pravastatin],-11.1 ± 11.1,-30.2 ± 5.5%,-15.0 ± 5.2%,–,–,-26.3 ± 11.1,–,–,–,–,–
C[C@]12C=CC(=O)C=C1CC[C@@H]1[C@@H]2[C@@H](O)C[C@@]2(C)[C@H]1CC[C@]2(O)C(=O)CO [Prednisolone],91.5 ± 0.5,42.1 ± 4.4%,68.6 ± 2.8%,–,–,66.0 ± 2.5,–,–,–,–,–
CC(C)C[C@H](CN)CC(=O)O [Pregabalin],27.2 ± 5.9,–,–,-29.6 ± 7.5,-15.8 ± 5.2,-1.3 ± 9.0,–,–,–,–,–
CC(CN1c2ccccc2Sc2ccccc21)N(C)C (stereo not drawn) [Promethazine],100.7 ± 1.3,5.7 ± 3.8%,76.0 ± 3.0%,–,–,83.7 ± 3.3,–,–,–,–,–
CCOC(=O)[C@H](CCc1ccccc1)N[C@@H](C)C(=O)N1[C@H](C(=O)O)C[C@@H]2CCC[C@@H]21 [Ramipril],35.4 ± 2.9,72.5 ± 7.4%,83.6 ± 6.2%,–,–,12.9 ± 4.1,–,–,–,–,–
CNC(=C[N+](=O)[O-])NCCSCc1ccc(CN(C)C)o1 [Ranitidine],91.5 ± 3.8,-7.9 ± 12.9%,11.6 ± 3.4%,–,–,65.2 ± 7.7,–,–,–,–,–
Cc1nc2n(c(=O)c1CCN1CCC(c3noc4cc(F)ccc34)CC1)CCCC2 [Risperidone],98.3 ± 3.1,57.8 ± 5.2%,78.4 ± 1.5%,–,–,81.0 ± 4.4,–,–,–,–,–
CCN(C)C(=O)Oc1cccc([C@H](C)N(C)C)c1 [Rivastigmine],91.4 ± 1.5,25.1 ± 9.1%,59.4 ± 4.6%,–,–,51.8 ± 4.0,–,–,–,–,–
CN[C@H]1CC[C@@H](c2ccc(Cl)c(Cl)c2)c2ccccc21 [Sertraline],100.5 ± 0.7,43.6 ± 2.9%,96.1 ± 1.7%,–,–,88.4 ± 2.1,low micromolar range,–,–,–,–
CCC(C)(C)C(=O)O[C@H]1C[C@@H](C)C=C2C=C[C@H](C)[C@H](CC[C@@H]3C[C@@H](O)CC(=O)O3)[C@H]21 [Simvastatin lactone],57.6 ± 10.0,48.5 ± 9.0%,53.8 ± 13.1%,–,–,-15.4 ± 5.5,–,–,–,–,–
CCOc1ccccc1OCCN[C@H](C)Cc1ccc(OC)c(S(N)(=O)=O)c1 [Tamsulosin],107.0 ± 3.1,14.9 ± 4.8%,65.7 ± 2.9%,–,–,–,–,–,–,–,–
Cn1c(=O)c2[nH]cnc2n(C)c1=O [Theophylline],-36.6 ± 10.9,-12.9 ± 5.7%,-16.7 ± 6.8%,–,–,-21.5 ± 13.0,–,–,–,–,–
Cc1cccc(Nc2ccncc2S(=O)(=O)NC(=O)NC(C)C)c1 [Torasemide],-19.5 ± 0.8,-11.4 ± 2.3%,-40.3 ± 5.0%,–,–,-33.2 ± 5.0,–,–,–,–,–
COc1cccc(C2(O)CCCCC2CN(C)C)c1 (stereo not drawn) [Tramadol],103.7 ± 9.2,–,–,5.9 ± 7.9,31.4 ± 1.4,47.1 ± 9.5,–,–,–,–,–
Nc1nc(N)c2nc(-c3ccccc3)c(N)nc2n1 [Triamterene],92.0 ± 2.1,6.6 ± 11.2%,17.5 ± 3.8%,–,–,48.0 ± 5.1,–,–,–,–,–
CCCC(CCC)C(=O)O [Valproic acid],27.7 ± 1.9,-17.3 ± 9.5%,-29.0 ± 9.2%,–,–,18.5 ± 7.6,–,–,–,–,–
CCCCC(=O)N(Cc1ccc(-c2ccccc2-c2nnn[nH]2)cc1)[C@H](C(=O)O)C(C)C [Valsartan],–,–,–,–,–,–,–,-41.7 ± 1.8%,-12.9 ± 3.6%,-77.2 ± 6%,-82.1 ± 9.9%
